In patent US20150306094A1, “TRANS-4--N,N-DIMETHYLCARBAMOYL-CYCLOHEXYLAMINE FOR TREATING NEGATIVE SYMPTOMS OF SCHIZOPHRENIA” (RICHTER GEDEON NYRT., priority 2012, published 2015):
Entries after “also recorded” stand apart in the source; their conditions may differ.

System: patients with schizophrenia
Test: international, multicenter, double-blind, placebo- and risperidone-controlled, fixed-dose clinical study
Type: in vivo, human
Conditions: for improvement on the PANSS factor score for negative symptoms, subpopulation with predominantly negative symptoms compared to ITT population: 6 week period, risperidone 4 mg/day, FIG. 1-4
From the text: In the clinical study beside the ITT (intent to treat) population which included the total number of the patients, a subgroup was identified including patients with predominantly negative symptoms. This subgroup was identical with the patient subpopulation showing severe negative symptoms defined by Lenert et al. (Schizophrenia Research 71 (2004) 155-165). Patients showing severe negative symptoms were separated into two groups: State 4 and State 6 (definitions are described in Example). State 4 and State 6 together represent the patient subpopulation with predominantly negative symptoms.
The term “change from baseline” refers to the change of the value of the PANSS factor score for negative symptoms compared to the value registered before treatment started (at the baseline visit). The values were calculated using least squares method. The least squares mean (LSM) values resulted from the analysis of covariance (ANCOVA) model with treatment group and study center as factors and the baseline PANSS factor score of negative symptoms as the covariate.
PANSS factor score for negative symptoms: Sum of scores for items 1, 2, 3, 4, and 6 in negative subscale: blunted affect, emotional withdrawal, poor rapport, passive social withdrawal, lack of spontaneity; and items 7 and 16 in general psychopathology subscale: motor retardation, and active social avoidance. Higher scores indicate worsening.
A representative clinical study was conducted as an international, multicenter, double-bind, placebo- and risperidone-controlled, fixed-dose trial. The objective of the study was to evaluate the safety and efficacy of cariprazine fixed doses in patients with schizophrenia. A total of 732 patients were selected using criteria that includes patients who (i) currently meet or have met in the past the Diagnostic and Statistical Manual of Mental Disorders, Fourth Edition, Text Revision (DSM-IV-TR) criteria for schizophrenia (295.30 Paranoid Type, 295.10 Disorganized Type, 295.20 Catatonic Type, or 295.90 Undifferentiated Type) based on the Structured Clinical Interview for DSM-IV (SCID), (ii) have a PANSS total score ≧80 and ≦120, (iii) have a score ≧4 on Clinical Global Impression-Severity scale (iv) have a score ≧4 on at least 2 of the following 4 PANSS positive symptoms: delusions, hallucinatory behavior, conceptual disorganization, and suspiciousness/persecution.
During a 6 week period, 3 doses of cariprazine (1.5 mg/day, 3 mg/day, 4.5 mg/day) was compared to placebo and to an effective dose of risperidone (4.0 mg/day).
Beside the ITT (intent to treat) population which included the total number of the patients, a subgroup was identified including patients with predominantly negative symptoms. […]

| SMILES | improvement on the PANSS factor score for negative symptoms, subpopulation with predominantly negative symptoms compared to ITT population (cariprazine 1.5, 3, 4.5 mg/day) | effect on primary negative symptoms of schizophrenia (conclusion from the clinical study of the Example) | effect of extrapyramidal symptoms (EPS) on the change of PANSS factor score for negative symptoms (week 6, patients with predominantly negative symptoms vs subgroup without EPS, cariprazine 1.5, 3, 4.5 mg/day, FIG. 5) |
| --- | --- | --- | --- |
| CN(C)C(=O)N[C@H]1CC[C@H](CCN2CCN(c3cccc(Cl)c3Cl)CC2)CC1 [cariprazine, trans-4-{2-[4-(2,3-dichlorophenyl)-piperazin-1-yl]-ethyl}-N,N-dimethylcarbamoyl-cyclohexylamine] | numerically higher improvement | can be treated effectively; also recorded: direct effect on negative symptoms | does not seem to be influenced by the treatment emergent EPS |
| Cc1nc2n(c(=O)c1CCN1CCC(c3noc4cc(F)ccc34)CC1)CCCC2 [risperidone, reference compound] | no difference |  |  |
